# The source made the active and inactive calls. No cut-off for these calls is given here.
# System: Detroit 551
# Experiment: Cytotoxicity against human Detroit 551 cells assessed as reduction in cell viability by MTS assay
# Assay type: toxicity, cell-based
row,SMILES,Activity
1,O=C(Nc1ccc(Cl)cc1)Nc1c[nH]c2ccccc12,Non-Toxic
2,O=C(Nc1ccc(C(F)(F)F)cc1)Nc1c[nH]c2ccccc12,Non-Toxic
3,O=C(Nc1ccc(OC(F)(F)F)cc1)Nc1c[nH]c2ccccc12,Non-Toxic
4,Cc1ccc(NC(=O)Nc2c[nH]c3ccccc23)cc1Cl,Non-Toxic
5,CC(C)c1ccc(NC(=O)Nc2c[nH]c3ccccc23)cc1,Non-Toxic
6,CCc1ccc(NC(=O)Nc2c[nH]c3ccccc23)cc1,Non-Toxic

# Target: Stimulator of interferon genes protein (Homo sapiens) (UniProt Q86WV6)
# Experiment: Inhibition of STING in human THP1-Dual KI-hSTING-R232 cells assessed as cGAMP-induced IRF luciferase expression at 1 uM incubated for 2 hrs by QUANTI-Luc reagent based luciferase reporter assay
# Assay type: cell-based
# Stimulator of interferon genes protein (Homo sapiens), sequence (Q86WV6 whole entry): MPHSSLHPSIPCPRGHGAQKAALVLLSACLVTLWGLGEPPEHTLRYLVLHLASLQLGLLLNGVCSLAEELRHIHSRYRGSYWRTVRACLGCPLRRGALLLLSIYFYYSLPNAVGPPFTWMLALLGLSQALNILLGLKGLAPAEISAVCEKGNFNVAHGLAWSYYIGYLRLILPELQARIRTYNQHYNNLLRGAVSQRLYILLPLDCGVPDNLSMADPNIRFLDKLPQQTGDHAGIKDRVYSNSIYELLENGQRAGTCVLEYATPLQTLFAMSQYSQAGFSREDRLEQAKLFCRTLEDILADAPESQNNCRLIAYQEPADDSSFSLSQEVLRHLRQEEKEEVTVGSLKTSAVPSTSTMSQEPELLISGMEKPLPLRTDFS
row,inhibition,SMILES
1,inactive,NC(=O)c1ccc(NC(=O)Nc2c[nH]c3ccccc23)cc1
2,inactive,Cn1cc(NC(=O)Nc2ccc(C(N)=O)cc2)c2ccccc21
3,Active,Cc1cccc(NC(=O)Nc2c[nH]c3ccccc23)c1
4,inactive,Cc1ccccc1NC(=O)Nc1c[nH]c2ccccc12
5,inactive,CN(C(=O)Nc1c[nH]c2ccccc12)c1ccccc1
6,inactive,O=C(Nc1ccc2c(c1)OCCO2)Nc1c[nH]c2ccccc12
7,inactive,Cn1cc(NC(=O)Nc2ccc(F)c(Cl)c2)c2ccccc21
8,Active,COc1cccc(NC(=O)Nc2c[nH]c3ccccc23)c1
9,inactive,Cn1cc(NC(=O)Nc2ccc(OC(F)(F)F)cc2)c2ccccc21
10,inactive,CCc1ccc(NC(=O)Nc2cn(C)c3ccccc23)cc1
11,Active,O=C(Nc1cccc(F)c1)Nc1c[nH]c2ccccc12
12,inactive,COc1ccc(NC(=O)Nc2c[nH]c3ccccc23)cc1
13,inactive,Cc1cccc(NC(=O)Nc2c[nH]c3ccccc23)c1C
14,inactive,O=C(Nc1c[nH]c2ccccc12)N1Cc2ccccc2C1
15,inactive,CC(=O)c1ccc(NC(=O)Nc2cn(C)c3ccccc23)cc1
16,inactive,Cn1cc(NC(=O)Nc2ccc(F)c(F)c2)c2ccccc21
17,inactive,CN(C)c1ccc(NC(=O)Nc2c[nH]c3ccccc23)cc1
18,inactive,CCc1ccccc1NC(=O)Nc1c[nH]c2ccccc12
19,Active,O=C(Nc1cccc(Cl)c1)Nc1c[nH]c2ccccc12
20,inactive,Cc1ccc(NC(=O)Nc2c[nH]c3ccccc23)c(C)c1

# From ChEMBL document CHEMBL5390249, “Analysis of structure-activity relationship of indol-3-yl-N-phenylcarbamic amides as potent STING inhibitors” (Bioorg Med Chem, 2023)
